Patent publication US10420764B2, “Pharmaceutical formulation of N-[5-[2-(3,5-dimethoxyphenyl)ethyl]-2H-pyrazol-3-YL]-4-[(3R,5S)-3 ,5-dimethylpiperazin-1-YL] benzamide” (AstraZeneca AB, priority 2012, dated 2019)
Like-named read-outs stand apart in the source and are kept apart here.

Test: Solubility of Formula (I) in simulated gastric and fasted simulated intestinal fluid
Format: physicochemical
From the text: Furthermore, we have observed that the compound of Formula (I) may form a viscous material at low pH, which has the effect of reducing the rate at which the drag dissolves. In order to achieve an acceptable rate and extent of dissolution across the physiological pH range, the earlier clinical formulation was manufactured using conditions designed to give a fine granule which, when compressed into tablet form would disperse rapidly upon administration. While this approach did result in an improvement in dissolution performance, ‘filming’ problems were experienced during manufacture. In addition, it was observed that the use of conventional lubricants such as magnesium stearate and sodium stearyl fumarate led to chemical degradation including impurity formation and/or complexation.

## COc1cc(CCc2cc(NC(=O)c3ccc(N4C[C@@H](C)N[C@@H](C)C4)cc3)n[nH]2)cc(OC)c1 [Formula (I), N-[5-[2-(3,5-dimethoxyphenyl)ethyl]-2H-pyrazol-3-yl]-4-[(3R,5S)-3,5-dimethylpiperazin-1-yl]benzamide]
Fasted simulated intestinal fluid, pH 6.5, fassif, read-out: solubility in fasted simulated intestinal fluid
  solubility: ~250 µg/mL
Simulated gastric fluid, pH 1.2, simulated gastric fluid, read-out: solubility in simulated gastric fluid
  solubility: ~5000 µg/mL
